Assay results from ChEMBL document CHEMBL5120862, “Novel non-covalent LSD1 inhibitors endowed with anticancer effects in leukemia and solid tumor cellular models” (Eur J Med Chem, 2022).
Activity calls are given as the source filed them. The calls are words filed in the database; no cut-off is given here.

Tests used:
MDA-MB-231 = experiment: Antiproliferative activity against human MDA-MB-231 cells assessed as inhibition of cell growth measured after 72 hrs by MTT assay; type: functional, cell-based; conditions: MDA-MB-231, 72 h
THP-1 [1] = experiment: Antiproliferative activity against human THP-1 cells assessed as inhibition of cell growth incubated for 72 hrs by CellTiter-Glo luminescent cell viability assay; type: functional, cell-based; conditions: THP-1, 72 h
THP-1 [2] = experiment: Antiproliferative activity against human THP-1 cells assessed as inhibition of cell growth incubated for 144 hrs by CellTiter-Glo luminescent cell viability assay; type: functional, cell-based; conditions: THP-1, 144 h
[3] = molecular target: T1, Histone-lysine N-methyltransferase EHMT2 (Homo sapiens, UniProt Q96KQ7); experiment: Inhibition of G9a (unknown origin) assessed as reduction in substrate methylation using histone H3 and SAM as substrate measured after 15 to 60 mins by microfluidic capillary electrophoresis analysis
T1 sequence (Q96KQ7 whole entry): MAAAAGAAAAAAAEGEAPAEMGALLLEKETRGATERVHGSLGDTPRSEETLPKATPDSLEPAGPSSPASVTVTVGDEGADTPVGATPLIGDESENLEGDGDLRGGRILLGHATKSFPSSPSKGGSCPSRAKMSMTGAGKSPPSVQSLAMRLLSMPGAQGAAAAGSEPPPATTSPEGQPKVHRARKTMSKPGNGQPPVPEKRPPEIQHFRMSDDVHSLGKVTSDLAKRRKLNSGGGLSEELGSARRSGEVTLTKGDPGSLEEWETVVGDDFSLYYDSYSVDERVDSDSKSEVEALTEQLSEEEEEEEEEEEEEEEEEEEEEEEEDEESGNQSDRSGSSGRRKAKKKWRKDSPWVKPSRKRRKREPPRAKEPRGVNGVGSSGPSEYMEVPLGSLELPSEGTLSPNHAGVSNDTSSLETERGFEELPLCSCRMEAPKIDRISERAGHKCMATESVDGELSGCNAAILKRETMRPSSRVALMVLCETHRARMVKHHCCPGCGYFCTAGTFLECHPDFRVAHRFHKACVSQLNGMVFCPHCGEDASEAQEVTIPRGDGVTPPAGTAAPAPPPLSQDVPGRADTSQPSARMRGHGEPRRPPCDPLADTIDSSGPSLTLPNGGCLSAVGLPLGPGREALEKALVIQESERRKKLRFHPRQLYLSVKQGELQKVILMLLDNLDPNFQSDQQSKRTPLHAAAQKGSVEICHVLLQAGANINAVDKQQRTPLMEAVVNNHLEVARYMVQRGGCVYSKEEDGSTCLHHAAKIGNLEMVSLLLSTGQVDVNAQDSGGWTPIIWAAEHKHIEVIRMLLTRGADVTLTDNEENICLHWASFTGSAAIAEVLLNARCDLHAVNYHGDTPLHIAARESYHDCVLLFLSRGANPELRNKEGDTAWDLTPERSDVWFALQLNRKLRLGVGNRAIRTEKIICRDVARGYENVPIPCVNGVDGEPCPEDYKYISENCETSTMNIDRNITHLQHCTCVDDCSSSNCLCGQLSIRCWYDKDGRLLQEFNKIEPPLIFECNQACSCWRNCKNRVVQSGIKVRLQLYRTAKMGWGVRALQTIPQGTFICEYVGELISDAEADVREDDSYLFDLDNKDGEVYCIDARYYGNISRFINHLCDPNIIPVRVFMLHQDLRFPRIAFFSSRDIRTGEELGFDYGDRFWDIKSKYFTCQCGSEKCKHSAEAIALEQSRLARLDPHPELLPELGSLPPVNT

[4] = molecular target: Histone-lysine N-methyltransferase, H3 lysine-79 specific (Homo sapiens) (UniProt Q8TEK3); experiment: Inhibition of […] (unknown origin) using [3H]SAM and HeLa oligo nucleosomes as substrates at 100 uM incubated for 1 hr relative to control
[5] = molecular target: T2, MAO-B (amine oxidase [flavin-containing] B) (Homo sapiens, UniProt P27338); experiment: Inhibition of human MAO-B using p-tyramine as substrate at 100 uM by fluorimetric analysis relative to control; conditions: human MAO-B enzyme, probe p-tyramine
T2 sequence (P27338 whole entry): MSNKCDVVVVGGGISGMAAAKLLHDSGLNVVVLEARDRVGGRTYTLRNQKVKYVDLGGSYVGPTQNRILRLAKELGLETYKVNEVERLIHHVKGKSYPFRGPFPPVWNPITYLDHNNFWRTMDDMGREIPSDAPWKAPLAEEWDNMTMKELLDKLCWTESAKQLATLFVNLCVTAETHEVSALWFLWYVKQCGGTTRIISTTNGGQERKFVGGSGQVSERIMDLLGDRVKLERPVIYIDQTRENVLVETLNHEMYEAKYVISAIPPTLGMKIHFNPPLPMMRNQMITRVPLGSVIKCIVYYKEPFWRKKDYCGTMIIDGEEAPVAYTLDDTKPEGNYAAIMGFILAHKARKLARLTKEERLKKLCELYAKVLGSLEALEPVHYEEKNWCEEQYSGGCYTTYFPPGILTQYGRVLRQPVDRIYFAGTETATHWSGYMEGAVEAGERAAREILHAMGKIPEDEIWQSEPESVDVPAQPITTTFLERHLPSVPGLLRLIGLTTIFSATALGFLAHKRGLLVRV

[6] = molecular target: Histone-lysine N-methyltransferase EZH2 (Homo sapiens) (UniProt Q15910); experiment: Inhibition of EZH2 (unknown origin) using [3H]SAM and chicken core histone as substrates at 100 uM incubated for 1 hr relative to control
THP-1 [7] = experiment: Antiproliferative activity against human THP-1 cells assessed as inhibition of cell growth incubated for 24 hrs by CellTiter-Glo luminescent cell viability assay; type: functional, cell-based; conditions: THP-1, 24 h
[8] = molecular target: T3, MAO-A (amine oxidase [flavin-containing] A) (Homo sapiens, UniProt P21397); experiment: Inhibition of human MAO-A using p-tyramine as substrate at 100 uM by fluorimetric analysis relative to control; conditions: human MAO-A enzyme, probe p-tyramine
T3 sequence (P21397 whole entry): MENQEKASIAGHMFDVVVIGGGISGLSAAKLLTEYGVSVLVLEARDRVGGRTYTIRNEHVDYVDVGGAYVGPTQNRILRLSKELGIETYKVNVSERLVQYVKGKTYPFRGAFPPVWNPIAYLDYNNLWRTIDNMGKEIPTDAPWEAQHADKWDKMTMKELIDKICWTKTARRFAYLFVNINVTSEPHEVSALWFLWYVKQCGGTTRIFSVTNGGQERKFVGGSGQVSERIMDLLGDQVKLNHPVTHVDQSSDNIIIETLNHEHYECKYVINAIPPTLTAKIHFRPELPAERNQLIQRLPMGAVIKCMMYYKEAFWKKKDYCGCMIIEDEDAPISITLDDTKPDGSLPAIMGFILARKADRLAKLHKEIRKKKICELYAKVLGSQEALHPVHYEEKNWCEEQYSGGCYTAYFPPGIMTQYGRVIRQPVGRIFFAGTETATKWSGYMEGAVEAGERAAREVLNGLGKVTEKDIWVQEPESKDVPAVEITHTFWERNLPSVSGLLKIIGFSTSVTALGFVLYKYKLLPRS

SJRH30 [9] = experiment: Antiproliferative activity against human Rh30 cells assessed as inhibition of cell growth incubated for 72 hrs; type: functional, cell-based; conditions: SJRH30, 72 h
MV4-11 [10] = experiment: Induction of apoptosis in human MV4-11 cells assessed as accumulation of cells at sub-G1 phase incubated for 24 hrs; type: functional, cell-based; conditions: dose 0.2-25 µM, DDE = dose-dependent effect
RD [11] = experiment: Induction of apoptosis in human RD cells assessed as increase in caspase 3/7 level at 4 uM incubated for 24 hrs; type: functional, cell-based
RD [12] = experiment: Antiproliferative activity against human RD cells assessed as inhibition of cell growth incubated for 144 hrs; type: functional, cell-based
MV4-11 [13] = experiment: Antiproliferative activity against human MV4-11 cells assessed as inhibition of cell growth at […] incubated for 72 to 144 hrs by trypan blue staining based analysis; type: functional; conditions: dose 2.5 µM, time 72-144 hrs
[14] = Cytotoxicity against human derived mesenchymal stem cells assessed as residual cell viability at 1.25 uM measured after 72 hrs relative to control; type: toxicity, cell-based; conditions: read-out: Activity
RD [15] = experiment: Antiproliferative activity against human RD cells assessed as inhibition of cell growth incubated for 24 hrs; type: functional, cell-based
[16] = molecular target: Lysine-specific histone demethylase 1A (Homo sapiens) (UniProt O60341); experiment: Inhibition of LSD1 in human MV4-11 cells assessed as increase in H3K4me2 level at 0.2 to […] incubated for 24 hrs by Western blot analysis; type: cell-based; conditions: dose 0.2-2.5 µM
SJRH30 [17] = experiment: Antiproliferative activity against human Rh30 cells assessed as inhibition of cell growth incubated for 24 hrs; type: functional, cell-based; conditions: SJRH30, 24 h
SJRH30 [18] = experiment: Antiproliferative activity against human Rh30 cells assessed as inhibition of cell growth incubated for 144 hrs; type: functional, cell-based; conditions: SJRH30, 144 h
LSD1/CoREST complex [19] = molecular target: T4, LSD1/CoREST complex (Homo sapiens, UniProt O60341); experiment: Inhibition of human LSD1/CoREST using histone H3 peptide as substrate by fluorescence polarization assay; type: protein-complex assay
[20] = molecular target: Lysine-specific histone demethylase 1A (Homo sapiens) (UniProt O60341); experiment: Inhibition of LSD1 in human MV4-11 cells assessed as increase in CD86 expression level incubated for 24 hrs by qRT-PCR analysis; type: cell-based; conditions: dose 0.2-1 µM
SJRH30 [21] = experiment: Antiproliferative activity against human Rh30 cells assessed as reduction in live cells at 4 uM incubated for 24 hrs by calceinAM/propidium iodide staining based fluorescence microscopy; type: functional, cell-based
LSD1/CoREST complex [22] = molecular target: T4, LSD1/CoREST complex; experiment: Binding affinity to human LSD1/CoREST assessed as dissociation constant by competitive fluorescence polarization assay; type: protein-complex assay
RD [23] = experiment: Antiproliferative activity against human RD cells assessed as inhibition of cell growth incubated for 72 hrs; type: functional, cell-based
MV4-11 [24] = experiment: Induction of cell cycle arrest in human MV4-11 cells assessed as accumulation of cells at G1 phase at 0.2 to […] incubated for 24 hrs; type: functional, cell-based; conditions: dose 0.2-2.5 µM
[25] = molecular target: Lysine-specific histone demethylase 1A (Homo sapiens) (UniProt O60341); experiment: Inhibition of LSD1 in human Rh30 cells assessed as increase in H3K4me2 level at 2 uM incubated for 48 hrs by Western blot analysis; type: cell-based
RD [26] = experiment: Antiproliferative activity against human RD cells assessed as reduction in live cells at 4 uM incubated for 72 hrs by calceinAM/propidium iodide staining based fluorescence microscopy; type: functional, cell-based
SJRH30 [27] = experiment: Induction of apoptosis in human Rh30 cells assessed as increase in caspase 3/7 level at 4 uM incubated for 24 hrs; type: functional, cell-based
[28] = molecular target: Lysine-specific histone demethylase 1A (Homo sapiens) (UniProt O60341); experiment: Inhibition of LSD1 in human RD cells assessed as increase in H3K4me2 level at 2 uM incubated for 48 hrs by Western blot analysis; type: cell-based

Histone-lysine N-methyltransferase, H3 lysine-79 specific (Homo sapiens), sequence (Q8TEK3 whole entry, looked up): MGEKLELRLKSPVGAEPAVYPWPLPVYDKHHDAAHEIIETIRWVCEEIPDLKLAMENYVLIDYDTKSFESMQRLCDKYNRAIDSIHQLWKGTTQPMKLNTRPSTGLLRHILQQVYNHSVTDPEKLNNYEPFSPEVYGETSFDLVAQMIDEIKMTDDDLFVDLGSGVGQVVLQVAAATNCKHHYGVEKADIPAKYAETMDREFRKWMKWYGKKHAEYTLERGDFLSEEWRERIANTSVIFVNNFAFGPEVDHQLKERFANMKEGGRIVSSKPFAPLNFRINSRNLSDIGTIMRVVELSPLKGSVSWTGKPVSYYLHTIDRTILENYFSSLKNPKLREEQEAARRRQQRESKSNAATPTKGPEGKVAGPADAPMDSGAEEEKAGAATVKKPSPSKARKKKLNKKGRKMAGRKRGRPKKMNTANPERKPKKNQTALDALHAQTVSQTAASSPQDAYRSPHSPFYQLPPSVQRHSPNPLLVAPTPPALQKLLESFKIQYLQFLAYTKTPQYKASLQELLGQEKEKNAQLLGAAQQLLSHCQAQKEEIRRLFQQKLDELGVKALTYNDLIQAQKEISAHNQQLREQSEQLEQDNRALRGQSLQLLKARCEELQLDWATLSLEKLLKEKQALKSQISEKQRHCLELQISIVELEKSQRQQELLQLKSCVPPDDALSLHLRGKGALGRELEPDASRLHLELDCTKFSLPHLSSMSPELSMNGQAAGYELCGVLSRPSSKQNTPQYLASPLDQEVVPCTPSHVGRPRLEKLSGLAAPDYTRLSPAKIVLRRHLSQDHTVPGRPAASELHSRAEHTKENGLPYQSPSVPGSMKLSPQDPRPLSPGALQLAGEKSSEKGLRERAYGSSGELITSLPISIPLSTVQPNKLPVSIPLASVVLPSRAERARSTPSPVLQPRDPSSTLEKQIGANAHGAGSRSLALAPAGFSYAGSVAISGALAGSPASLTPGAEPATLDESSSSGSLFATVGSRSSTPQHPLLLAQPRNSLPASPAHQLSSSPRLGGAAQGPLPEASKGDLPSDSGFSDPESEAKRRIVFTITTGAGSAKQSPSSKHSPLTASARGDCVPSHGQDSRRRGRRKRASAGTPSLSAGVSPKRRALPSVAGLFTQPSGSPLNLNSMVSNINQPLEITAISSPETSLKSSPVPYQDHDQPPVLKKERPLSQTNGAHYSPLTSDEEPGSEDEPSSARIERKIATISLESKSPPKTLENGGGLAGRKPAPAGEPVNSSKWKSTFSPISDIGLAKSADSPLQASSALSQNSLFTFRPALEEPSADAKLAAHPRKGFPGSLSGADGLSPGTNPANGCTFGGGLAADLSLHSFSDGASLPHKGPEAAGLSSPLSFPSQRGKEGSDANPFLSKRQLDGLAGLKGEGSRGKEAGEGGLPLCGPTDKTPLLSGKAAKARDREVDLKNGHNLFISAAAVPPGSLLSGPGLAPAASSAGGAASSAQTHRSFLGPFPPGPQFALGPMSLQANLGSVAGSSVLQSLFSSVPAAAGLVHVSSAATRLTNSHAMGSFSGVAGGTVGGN
Histone-lysine N-methyltransferase EZH2 (Homo sapiens), sequence (Q15910 whole entry, looked up): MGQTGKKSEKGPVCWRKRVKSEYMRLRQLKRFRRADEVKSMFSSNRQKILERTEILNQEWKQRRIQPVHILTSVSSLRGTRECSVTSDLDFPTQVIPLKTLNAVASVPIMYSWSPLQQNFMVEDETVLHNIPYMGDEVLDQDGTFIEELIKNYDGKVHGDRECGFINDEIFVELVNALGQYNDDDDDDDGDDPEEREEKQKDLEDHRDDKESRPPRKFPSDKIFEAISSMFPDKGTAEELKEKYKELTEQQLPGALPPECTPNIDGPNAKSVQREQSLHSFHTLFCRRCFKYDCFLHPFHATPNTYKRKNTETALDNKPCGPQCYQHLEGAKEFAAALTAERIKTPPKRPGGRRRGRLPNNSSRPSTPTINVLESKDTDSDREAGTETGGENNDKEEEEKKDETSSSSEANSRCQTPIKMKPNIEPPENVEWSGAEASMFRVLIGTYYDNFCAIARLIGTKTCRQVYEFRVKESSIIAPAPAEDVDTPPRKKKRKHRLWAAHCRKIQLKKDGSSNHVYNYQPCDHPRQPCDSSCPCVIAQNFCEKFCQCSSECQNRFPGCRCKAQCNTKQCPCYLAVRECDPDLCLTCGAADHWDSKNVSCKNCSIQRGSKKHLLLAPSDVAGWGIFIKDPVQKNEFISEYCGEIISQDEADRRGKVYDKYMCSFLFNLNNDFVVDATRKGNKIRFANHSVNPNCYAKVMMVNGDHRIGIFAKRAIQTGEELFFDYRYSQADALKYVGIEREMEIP

## COc1cc2nc(NCCCN(C)C)nc(NC3CCN(CCCc4ccccc4)CC3)c2cc1OC
MDA-MB-231
  IC50: 800 nM
THP-1 [1]
  IC50: 390 nM
THP-1 [2]
  IC50: 220 nM
[3]
  Ki: 690 nM
[4]
  inhibition: 30.3%
[5]
  inhibition at 100 µM: 0.3%
[6]
  inhibition: 2.9%
THP-1 [7]
  IC50: 490 nM
[8]
  inhibition at 100 µM: 7.4%

## C#CCN(C)CCCNc1nc(NC2CCN(Cc3ccccc3)CC2)c2cc(OC)c(OC)cc2n1
SJRH30 [9]
  IC50: 1530 nM
MDA-MB-231
  IC50: 3400 nM
MV4-11 [10]
  Activity: Dde
RD [11]
  Activity: Active
RD [12]
  IC50: 1420 nM
MV4-11 [13]
  inhibition: Active
[14]
  viability at 72 h, 1.25 µM: 96%
RD [15]
  IC50: 4560 nM
THP-1 [1]
  IC50: 340 nM
[16]
  inhibition: Active
SJRH30 [17]
  IC50: 1760 nM
SJRH30 [18]
  IC50: 1420 nM
LSD1/CoREST complex [19]
  Ki: 153 nM
THP-1 [2]
  IC50: 160 nM
[20]
  inhibition: Active
SJRH30 [21]
  Activity: Active
[3]
  Ki: 26100 nM
LSD1/CoREST complex [22]
  Kd: 64 nM
RD [23]
  IC50: 1920 nM
MV4-11 [24]
  Activity: Active
[25]
  inhibition: Active
RD [26]
  Activity: Active
SJRH30 [27]
  Activity: Active
THP-1 [7]
  IC50: 420 nM
[28]
  inhibition: Active
